Experimental data published in a melting point compilation (Tetko et al.; mined from patent text by program, amines drawn as free bases though some values may be those of a salt).

Row | SMILES | melting point [°C]
1 | C=CCOc1ccc(-c2ccc(C#N)cc2)cc1 | 68 to 69
2 | CC(C)NCC(O)COc1ccc2c(c1)C1CCC2c2ccccc21 (centres undefined) | 126 to 127
3 | CCCCCc1ccc(C(=O)Nc2ccc(-n3nc(C(F)(F)F)cc3C(F)(F)F)cc2)c(=O)o1 | 140 to 141
4 | CC(C)(C(=O)c1ccc(F)cc1)N1CCOCC1 | 63 to 66
5 | Cc1ccc(S(=O)(=O)O[C@H](C)COc2c(N)ccc(F)c2F)cc1 | 37 to 38
6 | FC(F)(F)Oc1cccc(COc2cccc(-c3nnc(Nc4ccc(Cl)c(Cl)c4)s3)c2)c1 | 166 to 167
7 | Cc1ccc(-c2ccc(/C=C/C(=O)O)s2)cc1 | 223 to 225
8 | CN1CCN(c2cc3nc(C(C)(C)C)sc3cc2N=C=O)CC1 | 124 to 126
9 | CC(=O)Oc1ccccc1C(=O)CNc1c(C(=O)O)[nH]c2cc(Cl)ccc12 | 184 to 186
10 | C=C(C)C(=O)Oc1cc(C(=O)OCC)cc(O)c1O | 106 to 108
11 | O=C(O)Cc1ccc(-c2nc3ccccc3o2)cc1F | 213 to 216
12 | Cc1nc(-c2ccccc2)nc(-c2cccc([N+](=O)[O-])c2)c1C(=O)NCCN(C)C | 122 to 124
13 | CCOc1ccc2cccnc2c1N | 94 to 95
14 | COc1cc(CCl)ccc1OCc1nc(-c2cccc(C#N)c2)oc1C | 150 to 151
15 | NC(=O)c1c(Cl)c(-c2ccccc2)n2c1CN(C(=O)c1ccc(-c3ccccn3)s1)CC2 | 232
16 | O=c1[nH]c2cscc2c(=O)c2cscc12 | 267 to 270
17 | COc1ccc(-n2c(=O)c(C)nc3cccnc32)cc1 | 251 to 252
18 | Cc1cc(-n2ccc(OCc3ccccc3)cc2=O)sc1C(=O)NCc1ccc(F)cc1 | 175 to 177
19 | Cc1nc(S(=O)(=O)Cc2ccccc2)nc(C)c1Br | 138 to 139
20 | CN(C(N)=O)c1nc(Cl)nc(Cl)n1 | 172 to 174
21 | O=S(=O)(Nc1ccc(OCc2ccc3ccccc3n2)cc1)c1c(F)c(F)c(F)c(F)c1F | 170 to 178
22 | CCCCCC(=O)CCc1ccc(CCCCCCCC(=O)O)o1 | 64 to 65
23 | COc1ccc(OC)c(CCNC(=O)N(C)O)c1 | 73 to 74
24 | CC#CC(C)(C)NC(=O)C(CC)Oc1cncc(Cl)c1 (centres undefined) | 87 to 89
25 | COC(=O)C1=C(C)NC(C)=C(C(=O)OCCN)C1c1cccc2c(=O)c(C)c(-c3ccccc3)oc12 (centres undefined) | 188 to 192

Row | SMILES | melting point [°C]
26 | COc1ccc2c(c1)C1(CC#N)CCC(=O)C=C1CC2 (centres undefined) | 133 to 134
27 | CC(=O)Oc1c(Cc2ccccc2)ccc2ccccc12 | 67 to 69
28 | CC(=O)Oc1ccc(-c2cc(=O)c3cccnc3o2)cc1 | 167 to 169
29 | Cc1nc2c(c3c1[nH]c1cccc(F)c13)C(=O)CC(C)(C)C2 | 246 to 247
30 | CCn1ncc(OCc2ccc(OCOC)cc2)c(Br)c1=O | 104 to 106
31 | CCOC(=O)C(NC(=O)Nc1c(F)cc(F)cc1CCc1cc(C(C)(C)C)c(O)c(C(C)(C)C)c1)c1ccccc1 (centres undefined) | 162 to 164
32 | CCN(CCOc1cccnc1[N+](=O)[O-])CCN1C(=O)c2ccccc2C1=O | 124 to 126
33 | CCOC(=O)Cn1[nH]c(C)c(Cc2cc(Cl)cc(Cl)c2)c1=O | 183 to 184
34 | COC(C)(CN(c1c(C)cccc1Cl)S(C)(=O)=O)OC | 84
35 | O=C(c1c[nH]c2cc(Br)ccc12)C(F)(F)F | 258 to 260
36 | CC(C)OC(=O)c1cc(NC(=O)c2ccccc2)c(F)cc1Cl | 117 to 119
37 | COC(=O)c1cn(-c2ccnc3ccccc23)c2cc(F)ccc12 | 186
38 | CN1C(=O)[C@H](NC(=O)CCc2ccc(Cl)cc2Cl)N=C(c2ccccc2)c2ccccc21 | 92 to 95
39 | C=CCOc1ccc2c(c1C=NO)OCO2 | 166 to 167
40 | O=C(NC[C@H]1CN(c2ccc3c(c2)CCCc2cnoc2-3)C(=O)O1)C(F)F | 145 to 180
41 | CS(=O)(=O)c1ccc(-c2cc(C(=O)CCCO[N+](=O)[O-])nn2-c2ccc(Br)cc2)cc1 | 150 to 152
42 | c1ccc(-c2nn3c(c2-c2nc4ncccc4[nH]2)CCC3)nc1 | 170 to 172
43 | Cc1nc(N2CCN(Cc3ccc(C(F)(F)F)nc3)C2=O)sc1C(N)=O | 225 to 228
44 | C=Cc1cc(C)cc(C)c1C1=C(O)C2(CCN(OC)CC2)NC1=O | 198 to 200
45 | NC(N)=NC(=O)Cc1c(-c2ccccc2)csc1-c1ccc(Oc2ccccc2)cc1 | 116 to 118
46 | COC(=O)c1ccc(OCC(=O)c2cc3cc(Cl)ccc3o2)cc1 | 145 to 147
47 | CCN(CC#N)S(=O)(=O)Cc1cccc(C(F)(F)F)c1 | 67 to 68.5
48 | CCOC(=O)CC1CN=C(c2cc3cc(OC(F)(F)F)cc(N(C)S(=O)(=O)c4cccs4)c3[nH]2)S1 (centres undefined) | 93 to 94
49 | c1ccc(-c2ccc3cc(COc4ccc(CCCn5ccnc5)cc4)cnc3c2)cc1 | 135 to 136
50 | COc1cc(C2(C#N)CC2)ccc1OCc1ccccc1 | 84

Row | SMILES | melting point [°C]
51 | COc1ccc(-c2nc(Cn3cncn3)nc3cc(OC)c(OC)cc23)cc1 | 206 to 207
52 | O=C(Nc1ccccc1[N+](=O)[O-])C12CC3CC(CC(C3)C1)C2 | 111 to 114
53 | CCOC(=O)c1sc(SC(C)C)c2c1CCc1nc(C)oc1-2 | 62 to 63
54 | Cc1cc(C)c2c(c1C)OC(=O)C2c1ccc(C(C)C)cc1 (centres undefined) | 107 to 108
55 | COc1ccc2c(c1)CCC1C2=CCC2(C)C1CCC21OCCO1 (centres undefined) | 146 to 149
56 | CC=Cc1cnn(C)c1S(=O)(=O)NC(=O)Nc1nc(OC)cc(OC)n1 | 154 to 156
57 | Cc1cc2c(s1)Oc1ccccc1N=C2N1CC2CCC(C1)N2C | 156 to 159
58 | CC(C)(C)OC(=O)NCCCCCN(OCc1ccccc1)C(=O)CCC(=O)O | 93 to 94
59 | CC(=O)OC1CSC(Oc2cnccc2C)C(OC(C)=O)C1OC(C)=O (centres undefined) | 150
60 | Cc1nc(C(F)(F)F)ccc1C(=O)C1=C(Sc2ccc(Cl)cc2)C2CCC(C2)C1=O (centres undefined) | 130 to 131
61 | O=C(NCc1ccc(F)cc1)c1ccc2nc(N[C@@H]3CCc4ccccc43)ccc2c1 | 175
62 | CCOC(=O)c1cn(-c2ccc(F)cc2)c2cc(C#C[Si](C)(C)C)ccc2c1=O | 247 to 249
63 | C=C(C)[C@@H]1CC[C@](C)(O)[C@@H](n2ccnc2)C1 | 126 to 128
64 | Fc1ccc(OC2CCN(CCc3c[nH]c4ccccc34)CC2)cc1 | 109 to 111
65 | COCCNC(=O)c1cccc(-c2ccc(F)c3cc(Cc4cccc(C(F)(F)F)c4)sc23)c1 | 123 to 124
66 | Cc1cc(-n2ccnc2)c2cccc(OCc3c(Cl)ccc(S(=O)(=O)N4CCC[C@H]4C(=O)O)c3Cl)c2n1 | 172
67 | CC(=CC1=NCCC1)N(C)C1CCCCC1 | 152 to 153
68 | COC(=O)C1Cc2c([nH]c3ccccc23)CN1C(=O)c1ccc(Cl)cc1 (centres undefined) | 243 to 244
69 | CC(N)c1cc(NC(=O)OC(C)(C)C)ccc1NC(=O)OC(C)(C)C (centres undefined) | 170
70 | O=C(CC1CCCC1)Nc1ccc2cccc(OS(=O)(=O)C(F)(F)F)c2c1 | 111 to 116
71 | CCOC(=O)c1ccc(CCC2CC(n3c4ccccc4c4ccccc43)c3ccccc3N2C(=O)c2ccc(OC)c(OC)c2)cc1 (centres undefined) | 247 to 249
72 | COc1ccc(CNc2ccc(C#N)cc2)cc1F | 108
73 | Cc1cccc2c1SC1(CC1)C2=O | 74 to 75
74 | CC1(C(=O)Cc2ccc(Cl)cc2[N+](=O)[O-])CC=CS1 (centres undefined) | 142 to 143
75 | COC(=O)c1cc(I)c(OC)c2c1OCO2 | 162 to 164

Row | SMILES | melting point [°C]
76 | O=C1Nc2cccc(Cl)c2C(=O)N2CC=C[C@@H]12 | 250
77 | O=C1NC(N2CCCCCC2)=N/C1=C\c1c[nH]c2ncc(C(F)(F)F)cc12 | 340
78 | CC(C)(C)CC(=O)Nc1ccc2oc3c(c2c1)CCCC3 | 164 to 165
79 | O=C(CCC(O)c1cccs1)Nc1cccc2cc(-c3nccs3)[nH]c12 (centres undefined) | 155 to 157
80 | O=C(c1cccs1)C(O)c1ccc(Cl)c(Cl)c1 (centres undefined) | 108 to 109
81 | CCCN(c1ccc(C(=O)OCC)cc1)c1nc(=O)c2cccnc2s1 | 155 to 157
82 | N#CC1=C(c2ccccc2)Nc2n[nH]cc2C1c1ccccc1Cl (centres undefined) | 158
83 | Cc1noc(NS(=O)(=O)c2ccccc2-c2ccc(-c3ncco3)cc2CN(C)C(=O)c2cc3ccccc3[nH]2)c1C | 135 to 145
84 | O=C1COc2cc(OCc3c(F)cccc3F)ccc21 | 134 to 138
85 | CCCCc1nc(C(=O)CC)c(C#N)n1C(c1ccccc1)(c1ccccc1)c1ccccc1 | 140 to 143
86 | CCOC(=O)C1(C)Cc2cc(Cl)cc([N+](=O)[O-])c2O1 (centres undefined) | 69 to 72.5
87 | O=C(CC(Cc1ccccc1)(C(=O)O)C(=O)O)c1cccc(C(F)(F)F)c1 | 145 to 147
88 | Cc1c(NC(=O)c2ccc(OC[C@@H]3CCCO3)cc2)ccc2cc(CNCC3CCOCC3)cnc12 | 92 to 94
89 | CC(C)CCCC(C)C1CCC2C3CC=C4CC(N=[N+]=[N-])CCC4(C)C3CCC12C (centres undefined) | 84 to 86
90 | Nc1n[nH]c2cc(C(F)(F)F)ccc12 | 168 to 169
91 | COCCOC(=O)C1=C(C)Nc2nc(N3CCOCC3)nc(N3CCOCC3)c2C1c1cccc([N+](=O)[O-])c1 (centres undefined) | 172
92 | O=C1NCc2c(-c3ccccc3)cccc2N1C1CCCCC1 | 229 to 231
93 | COc1ccc2c(c1)Sc1cc(OC)c(Cl)cc1C(O)C2 (centres undefined) | 105 to 106
94 | O=C1OC(=O)c2ccc3c4cccc5cccc(c6ccc1c2c63)c54 | > 260
95 | Cc1ccn(-c2cc(Nc3c(Cl)cc(Cl)cc3Cl)nc(C)n2)n1 | 245 to 247
96 | COc1cccc2c1Sc1ccc(C(C)C(N)=O)cc1C(=O)C2 (centres undefined) | 210 to 211
97 | O=[N+]([O-])c1ccc(-c2cc(O)ccc2-c2ncnc(-c3ccccc3)n2)cc1 | 238 to 240
98 | OCC1OC(n2c(Cl)nc3c(Cl)cc(Cl)cc32)C(O)C1O (centres undefined) | 162
99 | CC(C)(C)c1ccc(SCCCCCOc2ccc(C3=C(c4ccccc4)CCCc4cc(O)ccc43)cc2)cc1 | 139
